Reference: patent US9718824B2, “Solid forms comprising 7-(6-(2-hydroxypropan-2-yl)pyridin-3-yl)-1-((trans)-4-methoxycyclohexyl)-3,4-dihydropyrazino[2,3-b]pyrazin-2(1H)-one, and a coformer, compositions and methods of use thereof” (Signal Pharmaceuticals, LLC, priority 2014, dated 2017)

Test: Physical stability under accelerated ageing conditions, re-analysis by XRPD and digital imaging
Format: physicochemical
Conditions: 40° C. and 75% RH, 48 hours
Procedure: AAC: Accelerated aging conditions (48 hours at 40° C. and 75% RH)
Physical stability of all samples was studied by exposing all solids to accelerated ageing conditions (40° C./75% RH for 48 hours) followed by re-analysis by XRPD and digital imaging. After exposure to accelerated ageing conditions, all solids were re-classified on the basis of their new XRPD patterns. The assignment of solid forms was primarily based on the XRPD analysis.
Subsequently, all solids were placed in a climate chamber at 40° C. and 75% RH for […] and again analyzed by XRPD and digital imaging.
Compound 1 free base was solid dosed in 1.8 mL scale experimental vials. The coformer was added at a ratio of 1:1.1 (Compound 1:coformer). The solvent and a stirring bar were added to the vials. […] After the solids were separated from the liquids, the solids were analyzed wet by XRPD and digital imaging. […] The solids obtained were then analyzed by XRPD and digital imaging. Subsequently, the solids were incubated in a climate chamber at 40° C. and 75% RH for 48 hours and again analyzed by XRPD and digital imaging.
In these experiments 4 coformers and 6 solvents were tested (see Table 10). […] All obtained solids were then analyzed by XRPD and digital imaging. Subsequently, the solids were placed in a climate chamber at 40° C. and 75% RH for 3 days after which they were analyzed by XRPD and digital imaging again. […]

COC1CCC(N2C(=O)CNc3ncc(-c4ccc(C(C)(C)O)nc4)nc32)CC1.O=C(O)C=CC(=O)O (stereo not shown) [Form 1]
Physical stability at accelerated aging conditions (solid form by XRPD): stable
